Results: US11952582B2, “Herbicide-resistance gene and application thereof in plant breeding” (priority 2017, dated 2024)
“Also recorded” adds a separate entry of the source.

Tests used:
PaHPPD-SDM = PaHPPD-SDM (Pseudomonas aeruginosa, UniProt Q9I576, A156V/E349K/R282S); conditions: higher doses in the range 0-60 of herbicide
Excerpt: Specifically, the presence of tyrosine aminotransferase in E. coli DH5a can catalyze the production of p-hydroxyphenylpyruvate (4-HPP) from tyrosine, which is used as a substrate for HPPD to produce homogentisic acid (HGA). After further oxidation and polymerization, a brown substance is produced. The addition of HPPD inhibitors will inhibit this reaction, thereby reducing the production of pigment. Therefore, the gradation of pigment can be used as an inhibition index of HPPD activity. […] Through heterologous expression of HPPD mutant genes from different species in E. coli DH5α, the resistance characteristics of E. coli DH5α-mutated gene to triketone herbicides were analyzed by detecting the absorption value of pigment at 405 nm (FIGS. 2-6, 8 and 9).
The PaHPPD mutants obtained by random mutation was cloned into E. coli cells together with wild-type PaHPPD and AtHPPD for comparation and screening.
The bacteria solution shaking cultured overnight at 37° C. was centrifuged, and 200 μL of supernatant was transferred to a sterile 96-well plate (microplate with high throughput characteristics) using a 200 μL pipette on an ultra-clean workbench. The pigment content was measured with a microtiter plate reader at a wavelength of 405 nm (OD405 nm), and the HPPD activity was evaluated according to the size of the OD value.
Then the obtained PaHPPD-SDM mutant was compared with its parental mutants (PaHPPD-M3, PaHPPD-DS18, and PaHPPD-DS73) to understand their ability of brown pigmentation in the presence of triketone herbicides at different doses (0-60 μM). The calculation formula of HPPD activity (%) is as follows: HPPD activity(%)=(Am/Ac)×100
Wherein Am refers to the average value of the absorbance at a specific herbicide dose, and Ac refers to the average value of the absorbance without the herbicide.

[1] = system: Arabidopsis WT, OE At, OE Pa, OE M3 seedlings; test: NBT and DAB staining of Arabidopsis seedlings (superoxide, hydrogen peroxide); type: in vivo, Arabidopsis thaliana; conditions: 100 nM, 72 h
Experimental: (§1) 2 week-old Arabidopsis seedlings were cultured continuously in ½ MS mediums with 100 nM mesotrione and without mesotrione for 72 h, and then transferred to 3.5 mg/mL NBT staining solution (prepared with potassium phosphate buffer containing 10 mM NaN3) and soaked in vacuum for 2 min, and then placed on a shaker overnight. The NBT-stained plants were placed in a mixed solution of acetic acid:glycerol:ethanol=1:1:3 (v/v/v) and destained at 100° C. for 5 min, then reserved in a mixed solution of glycerol:ethanol=1:4 (v/v), and was used to take photos to record the test results.
as §1, with “DAB” for “3.5 mg/mL NBT”, “solution,” for “solution (prepared with potassium phosphate buffer containing 10 mM NaN3)”, “for 7-8 hours.” for “overnight.”, “DAB-stained” for “NBT-stained”, “glycerol: ethanol=1:4” for “glycerol:ethanol=1:4”
2 week-old T3 generation Arabidopsis seedlings of WT, OE At, OE Pa and OE M3 were transfered to different control (½ MS medium) and treatment medium (½ MS medium containing 100 nM mesotrione) for 72 h, and then stained with NBT and DAB to detect the accumulation of reactive oxygen species.

Chain of PaHPPD-SDM (Q9I576 whole entry A156V/R282S/E349K): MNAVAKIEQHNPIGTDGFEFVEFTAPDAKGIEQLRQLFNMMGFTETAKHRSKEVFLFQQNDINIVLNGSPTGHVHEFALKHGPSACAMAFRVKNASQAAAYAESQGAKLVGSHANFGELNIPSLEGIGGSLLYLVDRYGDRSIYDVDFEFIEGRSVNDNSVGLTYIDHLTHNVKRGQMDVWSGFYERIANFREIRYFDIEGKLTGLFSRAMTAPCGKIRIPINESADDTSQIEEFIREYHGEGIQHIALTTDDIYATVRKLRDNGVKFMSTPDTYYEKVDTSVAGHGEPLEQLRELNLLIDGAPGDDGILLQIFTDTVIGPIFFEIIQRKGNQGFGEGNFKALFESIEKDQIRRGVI

CS(=O)(=O)c1ccc(C(=O)C2C(=O)CCCC2=O)c([N+](=O)[O-])c1 [mesotrione]
resistance by HPPD activity (%) compared with WT, PaHPPD-M3, PaHPPD-DS18 and PaHPPD-DS73 (PaHPPD-SDM): improved the resistance
accumulation of superoxide and hydrogen peroxide of OE M3 compared with WT, OE At and OE Pa [1]: significantly less; also recorded: significantly reduced
